# Experimental data reported in patent US20110245288A1 (priority 2010, published 2011).
# Experiments:
# [1] = human
# [2] = human; remark: listed apart in the source
SMILES,Cumulative permeation [1],Flux [1],Lag time [1],Skin Disposition [1],flux enhancement [1],fold increase in cumulative permeation as compared to BUP [1],Plasma hydrolysis (k) [2]
"CO[C@]12CC[C@@]3(C[C@@H]1[C@](C)(O)C(C)(C)C)[C@H]1Cc4ccc(O)c5c4[C@@]3(CCN1CC1CC1)[C@H]2O5 [BUP, buprenorphine, reference compound]",6.32 ± 2.16 nmol,0.44 ± 0.14 nmol/cm^2/h,9.2 ± 2.0 h,0.62 ± 0.34 µmol/g,,,
"CCOCCOCCOC(=O)Oc1ccc2c3c1O[C@H]1[C@@]4(OC)CC[C@@]5(C[C@@H]4[C@](C)(O)C(C)(C)C)[C@@H](C2)N(CC2CC2)CC[C@]315 [Formula I, Buprenorphine 3,6-dioxaoctyl carbonate]",17.5 ± 4.0 nmol,1.24 ± 0.23 nmol/cm^2/h,7.7 ± 1.7 h,1.0 ± 0.4 µmol/g,*Formula I (3) (key: *Indicates a flux enhancement greater than 2.),≥ 2.75 fold,-0.113 h⁻¹
"CCOCCOCCOCCOCCOC(=O)Oc1ccc2c3c1O[C@H]1[C@@]4(OC)CC[C@@]5(C[C@@H]4[C@](C)(O)C(C)(C)C)[C@@H](C2)N(CC2CC2)CC[C@]315 [Formula II, Buprenorphine 3,6,9,12-tetraoxatetradecanyl carbonate]",4.5 ± 1.9 nmol,0.31 ± 0.26 nmol/cm^2/h,7.4 ± 4.7 h,4.5 ± 1.9 µmol/g,,,-1.12 h⁻¹
"CCOCCOCCOCCOC(=O)Oc1ccc2c3c1O[C@H]1[C@@]4(OC)CC[C@@]5(C[C@@H]4[C@](C)(O)C(C)(C)C)[C@@H](C2)N(CC2CC2)CC[C@]315 [Formula III, Buprenorphine 3,6,9-trioxaundecyl carbonate]",23.9 ± 6.7 nmol,1.74 ± 0.45 nmol/cm^2/h,8.7 ± 0.6 h,13.89 ± 12.21 µmol/g,*FormuIa III (4) (key: *Indicates a flux enhancement greater than 2.),≥ 2.75 fold,-0.37 h⁻¹
